# Source: article PMC1568752 (Environmental Health Perspectives, 1985)
# How the values were obtained:
# [1] = tested on: aryl hydrocarbon hydroxylase (AHH) induction in rat hepatoma H-4-II-E cells; settings: Table 1, PCB congeners; cited from earlier work
# [2] = tested on: ethoxyresorufin O-deethylase (EROD) induction in rat hepatoma H-4-II-E cells; settings: Table 1, PCB congeners; cited from earlier work
# rats = settings: cited from earlier work
# [3] = tested on: hepatic microsomal AHH and EROD; experiment: In vivo induction of rat hepatic microsomal AHH and EROD; settings: 300 umole/kg, immature male Wistar rats (Figure 7)
# DMAP N-demethylase = experiment: In vivo induction of rat hepatic microsomal DMAP N-demethylase; settings: 300 umole/kg, immature male Wistar rats (Figure 7)
# [4] = injected intraperitoneally on days 1 and 3, 150 umole/kg per injection in corn oil, killed on day 6
# [5] = molecular target: T1, 2,3,7,8-TCDD hepatic cytosolic receptor protein (Rattus norvegicus, UniProt P41738); experiment: Competitive binding to the rat hepatic cytosolic 2,3,7,8-TCDD receptor protein; settings: for competition with [3H]-2,3,7,8-TCDD for the receptor binding protein: dose-response competition experiments, at high concentrations
# T1 sequence (P41738 10-853): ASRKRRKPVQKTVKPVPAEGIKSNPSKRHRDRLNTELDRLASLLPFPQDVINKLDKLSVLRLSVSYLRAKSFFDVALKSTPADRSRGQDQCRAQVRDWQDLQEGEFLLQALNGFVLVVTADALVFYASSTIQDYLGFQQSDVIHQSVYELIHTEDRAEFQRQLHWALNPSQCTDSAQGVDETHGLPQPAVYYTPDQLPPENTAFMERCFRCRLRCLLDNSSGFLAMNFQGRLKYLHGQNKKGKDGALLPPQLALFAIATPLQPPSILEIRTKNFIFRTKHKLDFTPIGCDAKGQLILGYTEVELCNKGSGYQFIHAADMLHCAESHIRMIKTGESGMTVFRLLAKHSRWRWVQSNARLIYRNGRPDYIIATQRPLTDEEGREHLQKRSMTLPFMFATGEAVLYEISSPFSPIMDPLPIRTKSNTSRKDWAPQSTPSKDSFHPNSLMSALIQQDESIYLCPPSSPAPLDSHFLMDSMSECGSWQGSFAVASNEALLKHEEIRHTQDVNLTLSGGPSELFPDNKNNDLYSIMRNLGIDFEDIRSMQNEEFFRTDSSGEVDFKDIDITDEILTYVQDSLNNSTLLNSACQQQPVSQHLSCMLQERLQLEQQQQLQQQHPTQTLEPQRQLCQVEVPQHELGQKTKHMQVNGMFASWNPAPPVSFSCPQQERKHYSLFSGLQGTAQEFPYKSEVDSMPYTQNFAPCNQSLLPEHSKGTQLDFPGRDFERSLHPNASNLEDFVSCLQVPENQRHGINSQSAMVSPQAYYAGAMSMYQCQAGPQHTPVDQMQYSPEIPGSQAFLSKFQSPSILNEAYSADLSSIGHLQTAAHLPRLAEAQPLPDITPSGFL
# pullets = settings: eggs from pullets receiving the PCB in their diet at 20 ppm; cited from earlier work
Compound,-log EC50 AHH induction [1],-log EC50 EROD induction [2],in vivo induction of microsomal AHH and EROD [3],in vivo induction of DMAP N-demethylase (DMAP N-demethylase),also measured
"Clc1ccc(-c2cc(Cl)c(Cl)c(Cl)c2Cl)cc1Cl [2,3,3',4,4',5-Hexa, 2,3,3',4,4',5-hexachlorobiphenyl]",5.68,6.05,–,–,thymic atrophy (rats): thymic atrophy
"Clc1cc(-c2ccc(-c3ccccc3)cc2)c(Cl)c(Cl)c1Cl [C6H5, 4'-Phenyl-2,3,4,5-tetrachlorobiphenyl]",–,–,significantly induced both,–,–
"Clc1ccc(-c2ccc(Cl)c(Cl)c2)cc1Cl [3,3',4,4'-Tetra, 3,3',4,4'-tetrachlorobiphenyl]",7.55,7.05,–,–,–
"Clc1cc(-c2ccc(Br)cc2)c(Cl)c(Cl)c1Cl [X = Br, 4'-Bromo-2,3,4,5-tetrachlorobiphenyl]",–,–,significantly induced both,inducers,–
"CC(C)c1ccc(-c2cc(Cl)c(Cl)c(Cl)c2Cl)cc1 [X = i-C3H7, 4'-Isopropyl-2,3,4,5-tetrachlorobiphenyl]",–,–,significantly induced both,inactive,Residue levels in rat liver [4]: 1-4 ppm
"Clc1ccc(-c2cc(Cl)c(Cl)c(Cl)c2)cc1Cl [3,3',4,4'5-Penta, 3,3',4,4',5-pentachlorobiphenyl]",9.62,9.61,–,–,–
"Clc1cc(-c2ccc(I)cc2)c(Cl)c(Cl)c1Cl [X= I, 4'-Iodo-2,3,4,5-tetrachlorobiphenyl]",–,–,–,inactive,–
"Clc1cc(Cl)c(-c2cc(Cl)c(Cl)c(Cl)c2)cc1Cl [2,3',4,4',5,5'-Hexa]",4.88,5.05,–,–,–
"Clc1ccc(-c2ccc(Cl)c(Cl)c2Cl)cc1 [2,3,4,4'-Tetra]",4.96,5.72,–,–,–
"CC(=O)c1ccc(-c2cc(Cl)c(Cl)c(Cl)c2Cl)cc1 [X = COCH3, 4'-Acetyl-2,3,4,5-tetrachlorobiphenyl]",–,–,–,–,"in vivo induction of the cytochrome P-450-dependent monooxygenases (AHH, EROD, DMAP N-demethylase) [3]: do not induce any"
"Clc1ccc(-c2cc(Cl)c(Cl)c(Cl)c2Cl)cc1 [2,3,4,4',5-Penta, 2,3,4,4',5-Pentachlorobiphenyl]",6.02,6.25,significantly induced both,inducers,–
"N#Cc1ccc(-c2cc(Cl)c(Cl)c(Cl)c2Cl)cc1 [X = CN, 4'-Cyano-2,3,4,5-tetrachlorobiphenyl]",–,–,significantly induced both,inducers,–
"Clc1cc(-c2ccc(Cl)c(Cl)c2Cl)cc(Cl)c1Cl [2,3,3',4,4',5'-Hexa, 2,3,3',4,4',5'-hexachlorobiphenyl]",6.15,5.90,–,–,thymic atrophy (rats): thymic atrophy
"Clc1cc2c(cc1Cl)Oc1cc(Cl)c(Cl)cc1O2 [TCDD, 2,3,7,8-tetrachlorodibenzo-p-dioxin, reference compound]",10.02,10.10,–,–,–
"Fc1ccc(-c2cc(Cl)c(Cl)c(Cl)c2Cl)cc1 [X = F, 4'-Fluoro-2,3,4,5-tetrachlorobiphenyl]",–,–,significantly induced both,inducers,–
"FC(F)(F)c1ccc(-c2cc(Cl)c(Cl)c(Cl)c2Cl)cc1 [X = CF3, 4'-Trifluoromethyl-2,3,4,5-tetrachlorobiphenyl]",–,–,significantly induced both,inactive,–
"Clc1cc(-c2ccccc2)c(Cl)c(Cl)c1Cl [2,3,4,5-Tetra, 2,3,4,5-tetrachlorobiphenyl]",–,–,–,–,"competition with [3H]-2,3,7,8-TCDD for the receptor binding protein [5]: some competition; in vivo induction of the cytochrome P-450-dependent monooxygenases (AHH, EROD, DMAP N-demethylase) [3]: do not induce any"
"Cc1ccc2cc3c(ccc4ccccc43)c3c2c1CC3 [3-MC, 3-methylcholanthrene, reference compound]",5.89,6.20,–,–,–
"Clc1cc(Cl)c(-c2cc(Cl)c(Cl)cc2Cl)cc1Cl [2,2',4,4',5,5'-Hexa, 2,2',4,4',5,5'-hexachlorobiphenyl]",–,–,–,–,"competition with [3H]-2,3,7,8-TCDD for the receptor binding protein [5]: some competition"
"FC(F)(F)c1ccc(-c2ccc(C(F)(F)F)c(C(F)(F)F)c2)cc1 [3,4,4'-tritrifluoromethylbiphenyl]",–,–,–,–,"competitive binding affinity for the receptor protein ([5]; displacement of [3H]-2,3,7,8-TCDD): unexpectedly low"
"Oc1ccc(-c2cc(Cl)c(Cl)c(Cl)c2Cl)cc1 [X = OH, 4'-Hydroxy-2,3,4,5-tetrachlorobiphenyl]",–,–,–,–,"in vivo induction of the cytochrome P-450-dependent monooxygenases (AHH, EROD, DMAP N-demethylase) [3]: do not induce any"
"Clc1ccc(-c2ccc(Cl)c(Cl)c2Cl)cc1Cl [2,3,3',4,4'-Penta, 2,3,3',4,4'-Pentachlorobiphenyl]",7.06,6.92,–,–,thymic atrophy (rats): thymic atrophy
"CC(C)(C)c1ccc(-c2cc(Cl)c(Cl)c(Cl)c2Cl)cc1 [C(CH3)3, 4'-tert-butyl-2,3,4,5-tetrachlorobiphenyl]",–,–,significantly induced both,inactive,–
"O=[N+]([O-])c1ccc(-c2cc(Cl)c(Cl)c(Cl)c2Cl)cc1 [NO2, 4'-Nitro-2,3,4,5-tetrachlorobiphenyl]",–,–,significantly induced both,inducers,–
"Clc1ccc(-c2cc(Cl)c(Cl)cc2Cl)cc1Cl [2,3',4,4',5-Penta, 2,3',4,4',5-pentachlorobiphenyl]",4.94,5.05,–,–,embryo mortality (pullets): 100%; thymic atrophy (rats): thymic atrophy
"Cc1ccc(-c2cc(Cl)c(Cl)c(Cl)c2Cl)cc1 [X = CH3, 4'-Methyl-2,3,4,5-tetrachlorobiphenyl]",–,–,–,–,"in vivo induction of the cytochrome P-450-dependent monooxygenases (AHH, EROD, DMAP N-demethylase) [3]: do not induce any"
"Clc1ccc(-c2cc(Cl)c(Cl)c(Cl)c2)c(Cl)c1 [2',3,4,4',5-Penta]",5.41,5.95,–,–,–
